# Paper PMC4874602 (ACS Infectious Diseases, 2016)
# Values joined by “and” are separate entries in the source; they are usually repeats but may differ in a detail not shown here. Equal entries are not always repeated. Where two headings read alike, the source gives them in different places.
# Assays:
# [1] = system: M. tuberculosis Erdman; format: in vivo, Mycobacterium tuberculosis; conditions: BALB/c, 4 weeks of treatment
# [2] = system: M. tuberculosis Erdman; format: in vivo, Mycobacterium tuberculosis
# [3] = BALB/c; for AUC168h: single 25 mg/kg oral dose of BDQ; for AUC8h: single 150 mg/kg oral dose of PZA
# [4] = C3HeB/FeJ; for AUC168h: single 25 mg/kg oral dose of BDQ; for AUC8h: single 150 mg/kg oral dose of PZA
# [5] = in vivo; conditions: BALB/c, mouse, po; for half-life: t1/2, BALB/c
# [6] = in vivo; conditions: C3HeB/FeJ, mouse, po; for half-life: t1/2, C3HeB/FeJ
# [7] = in vivo; conditions: BALB/c and C3HeB/FeJ, mouse
# [8] = system: THP-1 cells; conditions: 30 min exposure, 1 mM PZA, 0.4 mM POA
# [9] = C3HeB/FeJ less-responsive subpopulation, BDQ 10 mg/kg
# [10] = 25 mg/kg, AUCUL/AUCplasma, uninvolved lung, single 25 mg/kg oral dose of BDQ
# [11] = 25 mg/kg, AUCWL/AUCplasma, whole lung, single 25 mg/kg oral dose of BDQ
# [12] = 25 mg/kg, uninvolved lung, single 25 mg/kg oral dose of BDQ
# [13] = 25 mg/kg, whole lung, single 25 mg/kg oral dose of BDQ
# [14] = 25 mg/kg, lesion (type III), single 25 mg/kg oral dose of BDQ
# [15] = 25 mg/kg, plasma, single 25 mg/kg oral dose of BDQ
# [16] = 25 mg/kg, lesion (type I), single 25 mg/kg oral dose of BDQ
# [17] = 150 mg/kg, AUCUL/AUCplasma, uninvolved lung, single 150 mg/kg oral dose of PZA
# [18] = 150 mg/kg, AUCWL/AUCplasma, whole lung, single 150 mg/kg oral dose of PZA
# [19] = 150 mg/kg, plasma, single 150 mg/kg oral dose of PZA
# [20] = 150 mg/kg, uninvolved lung, single 150 mg/kg oral dose of PZA
# [21] = 150 mg/kg, whole lung, single 150 mg/kg oral dose of PZA
# [22] = 150 mg/kg, lesion (type III), single 150 mg/kg oral dose of PZA
# [23] = 150 mg/kg, plasma, single 150 mg/kg oral dose of PZA, 2.5–8 h terminal
# [24] = 150 mg/kg, lesion (type I), single 150 mg/kg oral dose of PZA
smiles,measurement,setting,value
"COc1nc2ccc(Br)cc2cc1[C@@H](c1ccccc1)[C@@](O)(CCN(C)C)c1cccc2ccccc12 [BDQ, bedaquiline]",log10 CFU reduction in lungs,[1]; BDQ 10 mg/kg oral gavage,3.1 log10 CFU
same,log10 CFU reduction in lungs,[1]; BDQ 25 mg/kg oral gavage,4.1 log10 CFU
same,activity against the less-responsive subpopulation,[2]; [9],only bacteriostatic
same,rate of decrease in log10 CFU in the lungs between 4 and 8 weeks of treatment,[2]; [9],0.0129 log10 CFU/week
same,rate of decrease in log10 CFU in the lungs between 4 and 8 weeks of treatment,"[2]; C3HeB/FeJ responsive subpopulation, BDQ 10 mg/kg",0.4392 log10 CFU/week
same,rate of decrease in log10 CFU in the lungs between 4 and 8 weeks of treatment,"[2]; C3HeB/FeJ responsive subpopulation, BDQ 25 mg/kg",0.3606 log10 CFU/week
same,AUC168h,"[3]; lesion (type III), 25 mg/kg",949 µg·h/g and 949.6 µg·h/g
same,AUC168h,[3]; uninvolved lung,956.6 µg·h/g
same,AUC168h,[3]; whole lung,694.0 µg·h/g
same,concentration in dissected caseum of type I granulomas (LC/MS/MS),"[4]; 8 h following a single 25 mg/kg dose of BDQ, preliminary",974.5 ng/g
same,AUC168h,[4]; lesion (type I),387.1 µg·h/g
same,AUC168h,[4]; uninvolved lung,653.9 µg·h/g
same,AUC168h,[4]; whole lung,739.42 µg·h/g
same,AUC(0-t),[5]; 25 mg/kg,33700 ng·h/mL
same,Kp,"[5]; 25 mg/kg, AUCLes/AUCplasma, lesion (type III), single 25 mg/kg oral dose of BDQ",28.2
same,Kp,[5]; [10],28.4
same,Kp,[5]; [11],20.6
same,Cmax,"[5]; 25 mg/kg, lesion (cellular non-necrotizing, type III), single 25 mg/kg oral dose of BDQ",31700 ng/g
same,Cmax,[5]; [12],36000 ng/g
same,Cmax,[5]; [13],22100 ng/g
same,half-life,[5]; [14],85.5 h
same,half-life,[5]; [12],67.4 h
same,half-life,[5]; [13],74.5 h
same,Tmax,[5]; [14],8 h
same,Tmax,[5]; [13],8 h
same,AUC(0-t),[6]; 25 mg/kg,35900 ng·h/mL
same,Kp,"[6]; 25 mg/kg, AUCLes/AUCplasma, lesion (type I), single 25 mg/kg oral dose of BDQ",10.8
same,Kp,[6]; [10],18.2
same,Kp,[6]; [11],20.6
same,Cmax,"[6]; 25 mg/kg, lesion (caseous necrotic granuloma, type I), single 25 mg/kg oral dose of BDQ",10100 ng/g
same,Cmax,[6]; [15],2720 ng/mL
same,Cmax,[6]; [12],23300 ng/g
same,Cmax,[6]; [13],22900 ng/g
same,half-life,[6]; [16],104 h
same,half-life,[6]; [12],84.1 h
same,half-life,[6]; [13],130 h
same,Tmax,[6]; [16],8 h
same,Tmax,[6]; [15],4 h
same,Tmax,[6]; [12],8 h
same,Tmax,[6]; [13],8 h
same,Tmax,[7]; 25 mg/kg,3 h
"O=C(O)c1cnccn1 [POA, pyrazinoic acid]",AUC8h,[3]; lesion (type III),99.5 µg·h/g
same,AUC8h,[3]; uninvolved lung,39.0 µg·h/g
same,AUC8h,[3]; whole lung,53.7 µg·h/g
same,AUC8h,[4]; lesion (type I),75.1 µg·h/g
same,AUC8h,[4]; uninvolved lung,30.4 µg·h/g
same,AUC8h,[4]; whole lung,43.9 µg·h/g
same,accumulation within THP-1 cells,[8],accumulated to a very low degree
same,AUC(0-t),[5]; 150 mg/kg,127000 ng·h/mL
same,Kp,"[5]; 150 mg/kg, AUCLes/AUCplasma, lesion (type III), single 150 mg/kg oral dose of PZA",0.78
same,Kp,[5]; [17],0.31
same,Kp,[5]; [18],0.42
same,Cmax,"[5]; 150 mg/kg, lesion (cellular non-necrotizing, type III), single 150 mg/kg oral dose of PZA",25000 ng/g
same,Cmax,[5]; [19],42500 ng/mL
same,Cmax,[5]; [20],10300 ng/g
same,Cmax,[5]; [21],14700 ng/g
same,half-life,[5]; [22],0.83 h
same,half-life,[5]; [23],1.24 h
same,half-life,[5]; [20],0.24 h
same,half-life,[5]; [21],0.24 h
same,Tmax,[5]; [22],1 h
same,Tmax,[5]; [19],0.5 h
same,Tmax,[5]; [20],0.5 h
same,Tmax,[5]; [21],0.5 h
same,AUC(0-t),[6]; 150 mg/kg,58700 ng·h/mL
same,Kp,"[6]; 150 mg/kg, AUCLes/AUCplasma, lesion (type I), single 150 mg/kg oral dose of PZA",1.28
same,Kp,[6]; [17],0.52
same,Kp,[6]; [18],0.75
same,Cmax,"[6]; 150 mg/kg, lesion (caseous necrotic granuloma, type I), single 150 mg/kg oral dose of PZA",12500 ng/g
same,Cmax,[6]; [19],14200 ng/mL
same,Cmax,[6]; [20],8300 ng/g
same,Cmax,[6]; [21],9000 ng/g
same,half-life,[6]; [24],12.1 h
same,half-life,[6]; [23],2.4 h
same,half-life,[6]; [20],3.9 h
same,half-life,[6]; [21],5.13 h
same,Tmax,[6]; [24],1 h
same,Tmax,[6]; [19],0.75 h
same,Tmax,[6]; [20],1 h
same,Tmax,[6]; [21],1 h
same,Tmax,[7]; 150 mg/kg,0.5 to 1 h
